System: not listed separately
Experiment: Binding of compounds to free synthetic melanin (Example 3)
Conditions: free synthetic melanin 50 μg/mL, compound 10 μM in PBS, 37° C., 1 hour; relative percentage of compound bound, measured spectrophotometrically from compound left in solution
Description: Free synthetic melanin was incubated with compounds of interest in order to determine relative binding affinity of various compounds of interest to melanin. Free synthetic melanin (50 μg/mL) and compounds of interest at 10 μM concentration in PBS were incubated at 37° C. for 1 hour. After 1 hour, the synthetic melanin was removed from the solution, and the relative concentrations of the compound left in solution (i.e., not bound to the melanin) were measured spectrophometrically.

Row | SMILES | % Melanin Bound
1 | OCC[n+]1ccccc1.[Cl-] [1-(2-Hydroxyethyl) pyridinium chloride] | 0%
2 | CCCC[n+]1ccccc1.[Cl-] [1-Butylpyridinium chloride] | 0%
3 | OCCc1c[nH]c2ccccc12 [3-(2-Hydroxyethyl)indole] | 6.5%
4 | Nc1cnc2ccccc2c1 [3-Aminoquinoline] | 5.1%
5 | CCCCCCCCCCCC[n+]1ccc(N)cc1.[Cl-] [4-Amino-1-dodecyl-pyridinium chloride] | 49.5%
6 | O=C(O)/C=C/c1ccc(O)c(O)c1 [Caffeic acid] | 0%
7 | Cn1c(=O)c2c(ncn2C)n(C)c1=O [Caffeine] | 4.4%
8 | CCN(CC)CCCC(C)Nc1ccnc2cc(Cl)ccc12 (stereo not shown) [Chloroquine] | 48.6%
9 | O=CC[C@@H](O)[C@H](O)[C@H](O)CO [Deoxy-d-glucose] | Not detected
10 | CCCCCCCCCCCCOC(=O)CCSCCC(=O)OCCCCCCCCCCCC [Dilauryl Thiodipropionate] | Not detected
11 | O=C(O)c1cc(O)c(O)c(O)c1 [Gallic acid] | 0%
12 | c1ccc2[nH]ccc2c1 [Indole] | 7.3%
13 | NC(=O)c1cccnc1 [Niacinamide] | 0%
14 | CC1COC(=O)O1 (stereo not shown) [Propylene Carbonate] | Not detected
15 | Cl.c1ccncc1 [Pyridine hydrochloride] | 0%
16 | Oc1ccccc1O [Pyrocatechol] | 21.5%
17 | Oc1cccc(O)c1O [Pyrogallol] | Not detected
18 | O=c1c(O)c(-c2ccc(O)c(O)c2)oc2cc(O)cc(O)c12 [Quercetin] | 99.7%
19 | O=C(O)CCSCCC(=O)O [Thiodipropanoic Acid] | 1.5%

System: Melanoderm Mel-B (high concentration of melanin) and Melanoderm Mel-C (low concentration of melanin) tissue models
Experiment: Affinity of pyridinium compounds for melanin in Melanoderm tissue models (Example 2)
Format: cell-based
Conditions: Melanoderm tissue models; 1 μM and 10 μM
Source text: Affinity of pyridinium compounds for melanin in Melanoderm Mel-B (high concentration of melanin) and Melanoderm Mel-C (low concentration of melanin) tissue models.
Melanoderm Mel-B (high concentration of melanin) and Melanoderm Mel-C (low concentration of melanin) tissue models were used to determine the affinity of pyridinium compounds for melanin. Chloroquine served as a positive control and caffeic acid was a negative control for melanin binding. […] Test materials were topically applied at 0, 24 and 48 hours and tested at 1 μM and 10 μM concentration in water. Media samples were collected at 6, 24, 48, and 72 hours and tissue were lysed at 72 hours.

Row | SMILES | melanin binding compared with the positive control (chloroquine)
20 | CCCCCCCCCCCC[n+]1ccc(N)cc1.[Cl-] [4-Amino-1-dodecyl-pyridinium chloride] | outperformed the positive control

Same assay, conditions: Melanoderm tissue models; 10 μM versus 1 μM

Row | SMILES | melanin binding, 10 μM compared to 1 μM concentration
21 | CCCCCCCCCCCC[n+]1ccc(N)cc1.[Cl-] [4-Amino-1-dodecyl-pyridinium chloride] | increased melanin binding

Same assay, conditions: topically applied at 0, 24 and 48 hours, 1 μM and 10 μM in water; media at 6, 24, 48, 72 hours, tissue lysed at 72 hours; FIG. 1

Row | SMILES | binding affinity for the 3-D tissue samples
22 | CCCCCCCCCCCC[n+]1ccc(N)cc1.[Cl-] [4-Amino-1-dodecyl-pyridinium chloride] | strong binding affinity
